Results reported in publication PMC11945201, “Enhancing the Oral Bioavailability of Glutathione Using Innovative Analogue Approaches” (Pharmaceutics, 2025).

Key:
[1] = test system: glutathione S-transferase (GST); assay: Glutathione S-transferase assay (CDNB conjugation, absorbance 340 nm); assay type: biochemical, equine; details: for GST Activity > 50%: yes/no, compared to GSH, more than 50% considered retaining GST activity
Procedure: The degree of conjugation of GSH or novel compounds to a substrate catalysed by GST can be monitored […] by conjugation with the substrate 1-chloro-2,4-dinotrobenzene (CDNB) to a thiol group. Successful conjugation results in the formation of a S-DNB conjugate, which strongly absorbs at 340 nm.
A stock solution of GSH and novel compounds (0.0315 mmolL^−1) were prepared. GSH or novel compounds (26 µL) were added to a mixture of pH = 7.4 DPBS (170 µL), CDNB (2 µL, 100 mmolL^−1), and GST enzyme (2 µL, 25 UmL^−1) to initiate the reaction. The rate of increase in absorbance at 340 nm was monitored every minute over a 10 min period. The rate of increase in absorbance at 340 nm was calculated by the following equation (Equation (1)), where ΔA340 is the change in absorption at 340 nm per minute:(1) ΔA340=A340(final)–A340(initial)/t.
The rate of increase in absorption at 340 nm was correlated to the specific activity of GST using the following equation (Equation (2)):(2) ΔA340×V/εmM ×Venz=Specific activity of GST, where the extinction coefficient εmM for a 96-well plate of a path length of 0.5 cm is 5.3 mmolL^−1cm^−1; Venz is the volume of the GST enzyme sample used (2 µL); and V is the total volume used ([…]). […] A GST activity more than 50% was considered as retaining GST activity.

[2] = test system: glutathione reductase (GR) and glutathione peroxidase (GPx); assay: Glutathione reductase and glutathione peroxidase coupled assay (NADPH, 340 nm); assay type: biochemical, yeast (GR), bovine (GPx); details: for GT/GPx Activity > 50%: yes/no, more than 50% considered retaining GR and GPx activity
Procedure: The activity of GR can be measured by monitoring the rate of decrease in absorbance of its substrate, NADPH, which absorbs light of 340 nm in the presence of a second substrate, i.e., oxidised GSH. […] In the presence of peroxides, reduced GSH can be oxidised by the enzyme GPx while reducing the peroxide. […] The NADPH solution (10 μL, 5 mmolL^−1), GPx enzyme solution (10 μL, 0.25 UmL^−1), and GR enzyme solution (10 μL, 10 UmL^−1) were also added to the reaction mixture. The reaction was initiated by the addition of tBu-OOH (2 μL, 30 mmolL^−1), and the decrease in absorbance at 340 nm was recorded by a microplate reader every 10 secs for one minute. […] A GR and GPx activity more than 50% was considered as retaining GR and GPx activity.

[3] = test system: Caco-2, Fibroblast, and HT29-MTX-E12 cells; assay: Cytotoxicity by MTT cell viability; assay type: cell-based; details: for IC50: Homo sapiens, 24 h incubation, cell line not split in table (Caco-2, Fibroblast, HT29-MTX-E12), highest usable concentration 3.25 mmolL^−1
Procedure: All cell culture studies were conducted in aseptic conditions. Incubation was maintained at an atmosphere of 37.0 °C, 5% CO2, and 95% relative humidity. The caco-2 cells were grown in complete Dulbecco’s modified Eagle’s medium (DMEM), which was prepared by adding 10% foetal bovine serum (FBS), 1% penicillin-streptomycin (P-S), and 1% non-essential amino acids (NEAA) to sterile DMEM. Cells were cultured in T-25 and T-75 tissue culture flasks, and the medium was exchanged every 3 days until 90% confluence was reached. Cells were detached and subcultured with 0.25% Trypsin-EDTA. The suspended cell concentration was determined by cell counting.
Cytotoxicity was measured by measuring cell viability using MTT. Then, 90% confluent cells were detached by 0.25% trypsin-EDTA, which were then counted and seeded into sterile 96-well plates. Caco-2 cells were seeded into 96-well plates at a density of 100,000 cells per well and incubated for 24 h prior to the experiment. Fibroblast cells were seeded into 96-well plates at a density of 10,000 cells per well and incubated for 24 h prior to the experiment. HT-29 cells were seeded into 96-well plates at a density of 10,000 cells per well and incubated for 24 h prior to the experiment. The supernatant in each well were discarded and the attached cells were washed using serum-free Fluorobite^TM DMEM twice to remove any phenol red. The peptide, at concentrations of 10 mgmL^−1, 1 mgmL^−1, 0.1 mgmL^−1, 0.01 mgmL^−1, 0.001 mgmL^−1, and 0.0001 mgmL^−1 were dissolved in serum-free Fluorobite^TM DMEM. The total volume of sample in each well used was 100 μL. The cells were incubated with the peptide for 24 h. Cells were also incubated with serum-free DMEM (positive control) and 2% Triton-X (negative control) for 24 h. The supernatant in each well was then discarded and washed using serum-free Fluorobite^TM DMEM. MTT (100 μL, 1.2 mmolL^−1) dissolved in Fluorobite^TM DMEM was then added to each well and incubated for 2 h for MTT conversion into formazan. The supernatant was then discarded, and the cells were washed using Fluorobite^TM DMEM to remove any residual MTT and formazan that were not attached to cellular mitochondria. Formazan was dissolved in dimethyl sulfoxide (DMSO) (50 μL), and the absorbance was measured on a microplate reader at a wavelength of 570 nm. Cell viability was expressed as a percentage of the positive control and calculated as follows (where Aexp is the absorbance at 570 nm of the experimental group, Aneg is the absorbance at 570 nm of the negative control, and Acon is the cell viability of the positive control): Cell viability = (Aexp − Aneg)/(Acon − Aneg).

Fibroblast cells = assay: UV rescue of UVA-irradiated fibroblast cells (MTT); assay type: cell-based; details: for % Cell Viability (with UV): UVA 1 h, then peptide 0.0325 mmolL^−1, 24 h
Procedure: Fibroblast cells were seeded into 96-well plates at a density of 10,000 cells per well determined by cell counting. Cells were allowed to settle and attach for 24 h before the addition of peptides. The supernatant in each well was discarded, and the attached cells were washed using serum-free DMEM twice. One group of cells was exposed to UVA under a UV lamp for 1 h. A second group of cells was not exposed to UV irradiation. The supernatant was removed from each well of both groups and replaced with peptide (100 μL, 0.0325 mmolL^−1), which was then dissolved in Fluorobite^TM DMEM. Each plate, including 2 wells of both groups was also incubated with serum-free DMEM (positive control) and 2% Triton-X (negative control) for 24 h. The supernatant in each well of both groups was then discarded and the cells washed using PBS. MTT (100 μL, 6 mmolL^−1) that was dissolved in HBSS was then added to each well and incubated for 2 h for MTT conversion into formazan. The supernatant was then discarded, and the cells were washed using PBS to remove any residual MTT and formazan that were not attached to the cellular mitochondria. Formazan was dissolved in DMSO (50 μL), and the absorbance was measured on a microplate reader at a wavelength of 570 nm.

Compound	activity/efficacy with GST enzyme (in words) ([1]; qualitative analysis)	GST Activity > 50% [1]	activity with GPx and GR enzymes (in words) ([2]; qualitative analysis)	GT/GPx Activity > 50% [2]	IC50 [3] [mM]	cytotoxicity (in words) ([3]; up to 3.25 mmolL^−1)	cell viability versus untreated groups (in words) (Fibroblast cells; UV rescue)	% Cell Viability (with UV) (Fibroblast cells; mean ± SD, n = 6) [%]	% Cell Viability (no UV) (Fibroblast cells; peptide 0.0325 mmolL^−1, 24 h, no UV, mean ± SD, n = 6) [%]
CN(C(=O)CC[C@H](N)C(=O)O)[C@@H](CS)C(=O)NCC(=O)O [Compound 1.70]	did not	✔ (✔: yes)	retention of activity	✔ (✔: yes)	> 3.25	no cytotoxicity detected	significantly higher cell viability than the untreated groups	112.4 ± 9.7	–
N[C@@H](CCC(=O)N[C@@H](CS)C(=O)NCC(=O)O)C(=O)O [GSH, Glutathione]	–	✔ (✔: yes)	–	✔ (✔: yes)	> 3.25	–	–	87.7 ± 4.5	100.0 ± 8.1
